Counter-ions that a name gives are not always drawn.
Key:
HIV = settings: CD4+ cells, Fields, et al., Nature, Vol. 333, 19 May 1988, cited from earlier work
RF strain of HIV-1 = assay: p24 antigen expression from HIV infected T-lymphocytes (C8166 T cell line); type: cell-based; settings: C8166 cells; for p24 Antigen: 3 h pretreatment, culture fluid after 3 days
Experimental: Cells (C8166 T cell line) were pretreated with test compounds at appropriate concentrations for 3 hours prior to virus (RF strain of HIV-1) absorption. Low multiplicity of infection was used and virus absorption period was 1 hour at room temperature. the cells were washed X1 in PBS and resuspended in fresh medium containing the appropriate concentrations of test compound. Cells incubated at 37°C and after 3 days culture fluid was assayed for p24 antigen as a measure of viral replication. Because these compounds were insoluble in water as their free base, they had to be taken up in DMSO and therefore a series of DMSO virus controls were needed for comparison.

[1] = system: Moloney murine leukemia virus (MoLV); assay: in vitro XC plaque assay (SC-1 cells infected with MoLV, XC cell overlay, plaques counted); type: cell-based; settings: compound added 2 hours before virus; for Mean No. of Foci: control 84 foci
Experimental: This assay was performed according to the method of Rowe et al. (Virology, 1970,42, 1136-39) as previously described by L. Hsu, et al. (J. Virological Methods, 1980, 1, 167-77) and T. L. Bowlin and M. R. Proffitt (J. Interferon Res., 1983, 3(1), 19-31). Mouse SC-1 cells (fibroblast) (10⁵) were seeded into each well of 6-well cluster plates (Costar #3506) in 4 ml Minimum Essential Medium (MEM) with 10% Fetal Calf Serum (FCS). Following an 18 hour incubation period (37°C), Moloney murine leukemia virus (MoLV) was applied at a predetermined titer to give optimal (i.e. countable) numbers of virus plaques. Compounds were added 2 hours prior to addition of the virus. Three days later the culture medium was removed, the SC-1 cell monolayers were exposed to UV irradiation (1800 ergs), and rat XC cells (10⁶) were seeded into each well in 4 ml MEM. Following an additional 3 day incubation (37°C), these cells were fixed with ethyl alcohol (95%) and stained with 0.3% crystal violet. Plaques were then counted under low magnification.

**Q.** Which “HIV cell surface binding” value (HIV) does the source give for `CC1CNCCN1S(=O)(=O)c1cccc2cnccc12` (stereo not shown) [1,5-isoquinolinesulphonyl-2-methylpiperazine dihydrochloride] here?
**A.** does not interfere with HIV cell surface binding

**Q.** What about the viral infectivity (HIV; accumulation of virus particles at the cell surface) of the same molecule?
**A.** inhibition of viral infectivity

**Q.** For `CCCc1[nH]c(=O)oc1-c1ccnc2ccccc12` [Test Compound, 4-propyl-5-(4-quinolinyl)-2(3H)-oxazolone], which “p24 Antigen” value (RF strain of HIV-1; 1 µg/ml, vehicle DMSO 0.01%, DMSO control 1027 pg/ml) is on record?
**A.** 745 pg/mL

**Q.** And the “p24 Antigen” value (RF strain of HIV-1; 10 µg/ml, vehicle DMSO 0.1%, DMSO control 2408 pg/ml)?
**A.** 710 pg/mL

**Q.** And the inhibition at 1 µg/mL (RF strain of HIV-1; Human immunodeficiency virus 1, 72 h, 1 µg/ml, vehicle DMSO 0.01%, 3 days)?
**A.** 28%

**Q.** And the inhibition at 10 µg/mL (RF strain of HIV-1; Human immunodeficiency virus 1, 72 h, 10 µg/ml, vehicle DMSO 0.1%, 3 days)?
**A.** 71%

**Q.** And the “Mean No. of Foci” value ([1]; 0.10 µg/ml)?
**A.** 84

**Q.** And the “Mean No. of Foci” value ([1]; 1 µg/ml)?
**A.** 10

**Q.** And the inhibition at 0.1 µg/mL ([1]; Murine leukemia virus, SC-1, 0.10 µg/ml)?
**A.** 0%

**Q.** What about the inhibition at 1 µg/mL ([1]; Murine leukemia virus, SC-1, 1 µg/ml) of the same molecule?
**A.** 88.1%

— patent publication EP0428105A2, “Use of quinolyl- and isoquinolyloxazole-2-ones for the production of a medicament for the prevention of glycoprotein enveloped virus infectivity” (MERRELL DOW PHARMACEUTICALS INC., priority 1989, dated 1991)
